From article PMC3939009, “Thrombin inhibitory activity of some polyphenolic compounds” (Medicinal Chemistry Research, 2013)
Read-outs that look alike come from different tables or passages of the source.

Key:
human thrombin [1] = biological target: T1, human thrombin (Homo sapiens, UniProt P00734); assay: BIAcore (SPR) analysis of binding to immobilized thrombin; parameters: Thrombin, also known as an active plasma coagulation factor II; purchased Sigma-Aldrich Chemical Co. (St. Louis, MO, USA) T7009; details: for Kd: read-out: K D, equilibrium dissociation constant; for kon: read-out: k a, association rate; for koff: read-out: k d, dissociation rate; for Response (RU): analyte 1,000 μM, thrombin immobilized on CM5 chip
Procedure: The biosensor assays were performed using the BIAcore 1000 biosensor system. All biosensor analyses were performed with a phosphate-buffered saline (PBS), pH 7.4, as a running buffer. […] The immobilization of thrombin on a biosensor carboxylmethyl dextran surface was performed according to the BIA applications Handbook (BIAcore, [1994]). The process of protein immobilization was performed on a sensor chip CM5 surface by the positively charged functional groups of protein amino acids. The immobilization process consisted of four steps: preconcentration, activation, ligand immobilization and deactivation of the residual NHS esters. […] The temperature during the whole experiment was also constant and was set to 25.0 °C. […] Each of these solutions (10 μl) was injected into an empty sensor chip channel. […] The amount of injected activation mixture was modified, to regulate the amount of immobilized ligand. […] The conditions of the latter experiments were established by numerous pre-tests. The assessed parameters included: the buffer flow rate, the volume of analyte injection, the concentration of analytes, types and concentration of regenerators. […] For each injection of analyte solution, the volume used was 100 μl. After injection of analyte was completed, the dissociation step occurred and the level of the interaction ligand-analyte was measured. During dissociation, the particles non-covalently bound to the ligand were washed out from the working channel. […] To do these calculations, the formulas presented below were used: the association rate […]]; the dissociation rate -d[AB]/dt=kd·[AB]; the equilibrium constants: KA=[AB]/[A]·[B]=ka/kd KD=[A]·[B]/[AB]=kd/ka.

human thrombin [2] = biological target: T1, human thrombin; assay: Analysis of thrombin inhibition parameters (Lineweaver–Burk curves); assay type: biochemical; parameters: Thrombin, also known as an active plasma coagulation factor II; purchased Sigma-Aldrich Chemical Co. (St. Louis, MO, USA) T7009; details: for k cat: compound at IC50 concentration, k cat = V max/E 0, control 29.1; for Type of inhibition: from Lineweaver–Burk curves; for V max of chromogenic substrate hydrolysis by thrombin / K m of chromogenic substrate hydrolysis by thrombin: thrombin incubated with compound at IC50 concentration; for V max of chromogenic substrate hydrolysis by thrombin: control 30.7; for K m of chromogenic substrate hydrolysis by thrombin: control 158.7
Procedure: Absorbance was monitored every 12 s for 10 min in a 96-well microplate reader. The velocity of reaction was expressed as the increase in product (pNA) over time (∆ μmol/min) using a computer program Mikcroplate Manager® 8 and the extinction coefficient of p-nitroaniline. […] Then, the Lineweaver–Burk ([1934]) curves for thrombin in the presence and in the absence of polyphenol compounds were plotted. The Lineweaver–Burk equation, which is a transformation of the Michaelis–Menten model, looks as follows: 1/V=Km/Vmax·1/[S]+1/Vmax

human thrombin [3] = assay: Thrombin-induced platelet aggregation (turbidimetric); assay type: cell-based; details: compound preincubated with thrombin
Procedure: Blood samples in 0.32 % sodium citrate from healthy volunteers without cardiovascular disorders were collected, untreated with antiplatelet drugs. […] Platelets were isolated from PRP using BSA–Sepharose 2B gel filtration method according to Walkowiak et al. ([2000]). […] In these preparations, to nine volumes of thrombin one volume of polyphenolic compounds was added (final thrombin concentration was 15.8 nM). All tested compounds were dissolved in 50 % DMSO to the initial concentration of 10 mM; other solutions of compounds were also prepared in 50 % DMSO (prepared in 50 mM TBS, pH 7.4). […] The platelet aggregation was measured by turbidimetric method (Saluk-Juszczak et al., [2007]) using dual-channel Chrono-log optical aggregometer (Chronolog, USA). […] Platelet suspensions were pre-warmed at 37 °C with stirring.

human thrombin [4] = biological target: T1, human thrombin; assay: SDS-PAGE analysis of thrombin-induced cross-linked fibrin formation; assay type: biochemical; parameters: Thrombin, also known as an active plasma coagulation factor II; purchased Sigma-Aldrich Chemical Co. (St. Louis, MO, USA) T7009; host or cells: purified from human plasma; details: cyanin 75 and 750 μM, (+)-catechin 125 and 1,000 μM, (−)-epicatechin 150 and 1,000 μM
Procedure: (§1) In these preparations, to nine volumes of thrombin one volume of polyphenolic compounds was added (final thrombin concentration was 15.8 nM). All tested compounds were dissolved in 50 % DMSO to the initial concentration of 10 mM; other solutions of compounds were also prepared in 50 % DMSO (prepared in 50 mM TBS, pH 7.4). The final concentration of DMSO in thrombin samples was 5 %. To prepare thrombin control samples, the same volume of solvent (50 % DMSO prepared in 50 mM TBS, pH 7.4) was added as in the case of the compound volume and warmed for 10 min to 37 °C.
The reactions incubated at 37 °C were stopped after 5, 15 and 30 min by adding 150 μl of lysis buffer (0.125 M Tris/HCl, 4 % SDS, 8 M urea, 10 % β-mercaptoethanol, pH 6.8). Samples were subjected to SDS-PAGE (polyacrylamide concentration—7.5 %) using Mini-Protean Electrophoresis Cell (Bio-Rad, Hercules, CA). Proteins were stained with Coomassie Brilliant Blue R250 (CBB).

human thrombin [5] = biological target: T1, human thrombin; assay: Thrombin-induced fibrinogen polymerization; assay type: biochemical; parameters: Thrombin, also known as an active plasma coagulation factor II; purchased Sigma-Aldrich Chemical Co. (St. Louis, MO, USA) T7009; details: thrombin preincubated with compound, 10 min 37 °C
Procedure: In these preparations, to nine volumes of thrombin one volume of polyphenolic compounds was added (final thrombin concentration was 15.8 nM). All tested compounds were dissolved in 50 % DMSO to the initial concentration of 10 mM; other solutions of compounds were also prepared in 50 % DMSO (prepared in 50 mM TBS, pH 7.4). […] Polymerization of fibrin was monitored at 595 nm using a 96-well microtiter plate reader. To each reaction well of the microtiter plate, 100 μl of fibrinogen (3 mg/ml) in 50 mM TBS and 5 mM CaCl2, pH 7.4, were added. […] The maximal velocity of the polymerization process (V max, Δm OD/min) for each absorbance curve was determined (Nowak et al., [2007]).

human thrombin [6] = biological target: T1, human thrombin; assay: Amidolytic activity of thrombin (hydrolysis of chromogenic substrate D-Phe-Pip-Arg-pNA); assay type: biochemical; parameters: Thrombin, also known as an active plasma coagulation factor II; purchased Sigma-Aldrich Chemical Co. (St. Louis, MO, USA) T7009; host or cells: purified from human plasma; details: at 375 μM substrate concentration; compounds 0.1–1,000 μM, preincubation 10 min 37 °C; read-out: IC50, amidolytic activity of human thrombin
Procedure: as §1, with “All” for “In these preparations, to nine volumes of thrombin one volume of polyphenolic compounds was added (final thrombin concentration was 15.8 nM). All”
To each reaction well, 40 μl of 3 mM chromogenic substrate was added. To initiate the chromogenic reaction, 280 μl of control thrombin (without tested compounds) or thrombin after preincubation with a polyphenolic compound to every reaction well in the same moment was added. The absorbance value was monitored every 12 s for 10 min. The maximal velocity of the reaction (V max, Δm OD/min) for each absorbance curve was determined. IC50 value (parameter) for every polyphenolic compound from inhibition curves was estimated.

Structure (SMILES) | K A, equilibrium association constant (human thrombin [1]) [M^–1] | K A, equilibrium association constant (human thrombin [1]; 5 sensorgrams, 50 to 1,000 μM) [M⁻¹] | Kd (human thrombin [1]; 5 sensorgrams, 50 to 1,000 μM) [µM] | kon (human thrombin [1]; 5 sensorgrams, 50 to 1,000 μM) [M⁻¹ s⁻¹] | koff (human thrombin [1]; 5 sensorgrams, 50 to 1,000 μM) [s⁻¹] | Response (RU) (human thrombin [1]) | k cat (human thrombin [2]) [s⁻¹] | Type of inhibition (human thrombin [2]) | V max of chromogenic substrate hydrolysis by thrombin (human thrombin [2]) | K m of chromogenic substrate hydrolysis by thrombin (human thrombin [2]) | Effect on thrombin ability to stimulate platelet aggregation (human thrombin [3]) | Changes in electrophoresis of fibrinogen treated with preincubated thrombin (human thrombin [4]) | Effect on thrombin ability to induce fibrinogen polymerization (human thrombin [5]) | IC50 (human thrombin [6]) [µM]
OC[C@H]1O[C@@H](Oc2cc3c(O[C@@H]4O[C@H](CO)[C@@H](O)[C@H](O)[C@H]4O)cc(O)cc3[o+]c2-c2ccc(O)c(O)c2)[C@H](O)[C@@H](O)[C@@H]1O [Cyanin, cyanin] | 115 | 115 | 8630 | 0.95 | 0.00824 | 827 | 19.7 | mixed type of inhibition | 20.8 10^−6 mol/min | 344.6 10^−6 M | no effect on thrombin ability to stimulate platelets aggregation | no changes were observed | inhibitory effect of polymerization of human fibrinogen was not observed | 75
Oc1cc(O)c2c(c1)O[C@H](c1ccc(O)c(O)c1)[C@@H](O)C2 [(+)-Catechin, (+)-catechin] |  | 20300 | 49.2 | 3.62 | 0.000178 | 717 | 29.5 | competitive inhibitors | 31.2 10^−6 mol/min | 700.1 10^−6 M | no effect on thrombin ability to stimulate platelets aggregation | no changes were observed | inhibitory effect of polymerization of human fibrinogen was not observed | 125
Oc1cc(O)c2c(c1)O[C@H](c1ccc(O)c(O)c1)[C@H](O)C2 [(−)-Epicatechin, (−)-epicatechin] | 192 | 192 | 5190 | 4.37 | 0.0227 | 431 | 27.8 | competitive inhibitors | 29.4 10^−6 mol/min | 481.5 10^−6 M | no effect on thrombin ability to stimulate platelets aggregation | no changes were observed | inhibitory effect of polymerization of human fibrinogen was not observed | 150
